# Assay results as given in patent US12291529B2, “Heterocyclic GLP-1 agonists” (Gasherbrum Bio, Inc., priority 2023, dated 2025).
# Key:
# [1] = Caco-2 permeability / efflux study; format: in vitro ADME; conditions: human; for Papp at 2 h, 10 μM: Caco-2, pH 7.4, 10 μM, 37° C., pH 7.4, 0.5% BSA, read-out: Caco-2 Perm; for efflux ratio at 2 h, 10 μM: Caco-2, pH 7.4, Caco-2 efflux ratio
# Description: Incubations with Caco-2 cell monolayers were performed in duplicate in a 96-well Transwell plate. Transport buffer solution (HBSS, 10 mM HEPES, pH 7.4, with 0.5% BSA) containing test article (10 μM), and either the control compounds metoprolol (10 μM), cimetidine (10 μM) and erythromycin (10 μM), was added to appropriate donor wells of the apical or basolateral plate. The transport buffer with DMSO was added to appropriate wells of receiver wells. Following incubation at 37° C. for 2 hours, the cell plates were removed and 50 μL samples from both apical and basolateral sides were transferred into new 96-well plates. Subsequently, 200 μL of acetonitrile containing internal standard was added to all samples to precipitate protein prior to analysis by UPLC-MS/MS. Lucifer yellow was used as a marker to confirm the integrity of the cell monolayers after 2 hours incubation.
# GLP-1 Receptor = GLP-1 Receptor (Homo sapiens, UniProt P43220); experiment: GLP-1R agonist cAMP stimulation assay (HEK293/GLP1R/CRE-LUC cells, Cisbio cAMP dynamic 2 kit); format: cell-based
# In short: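 HEK293 cells stably expressing human GLP-1R with CRE-Luc reporter, 1000 cells/well in DPBS with 0.5 mM IBMX and BSA. Cells treated with compound (½-log dilutions) for 30 min at 37 °C. cAMP read by HTRF at 665/615 nm; % activity relative to vehicle and maximal control.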
# [2] = Rat IV/PO PK study, Method A; format: in vivo, male Sprague Dawley (SD) rats
# Description: Pharmacokinetics (PK) study was conducted on male Sprague Dawley (SD) rats by two delivery routes intravenous (IV) and/or oral gavage (PO). Rats in IV route (n=3) were free access to food and water. Rats in PO route (n=3) were fasted overnight and fed at 4 hrs post dosing. Test article was formulated in solution (10% solutol HS 15 in saline) for IV route and solution or suspension (10% solutol HS 15 in saline/water) for PO route, respectively. On the day of experiment, test article was administered via vein (e.g. foot dorsal vein) injection (commonly at 1 mg/kg and 5 mL/kg) for IV route or via oral gavage (commonly at 2 or 5 mg/kg and 5 mL/kg) for PO route, respectively. Blood samples were collected via serial bleeding at ˜8 time points from 0.083 to 24 hrs post dose. Approximate 150 μL of blood/time point was collected into K2EDTA tube via tail vein or jugular vein. Blood samples were put on wet ice and centrifuged to obtain plasma samples and plasma samples were submitted to LC-MS/MS for sample analysis. Pharmacokinetics parameters, including elimination half life (t1/2) (IV), area under the curve (AUC) and oral bioavailability (F %), etc. were calculated by non-compartmental model using WinNonlin.
# FaSSIF solubility = format: physicochemical; conditions: FaSSIF buffer, 25 °C, fassif, thermodynamic from solid
# Description: Stock solution of test article and control compound (chlorpromazine, astemizole, and phenytoin) were prepared in DMSO at 10 mM. 50 μL each of stock solutions were dried down, followed by reconstitution to 1 mM with FaSSIF buffer in the well. The incubation plate was shaked at 25° C., 1,100 rpm for 4 hours. And then, the samples were filtered by using the vacuum manifold. 10 μL aliquots from each well was transferred to a new 96-well plate and adjust the volume to 80 μL with blank buffer. Using a mixture of H2O and acetonitrile containing internal standard (1:1) to dilute the sample 100-fold, 500-fold and 2,500-fold. The samples are evaluated by LC/MS/MS analysis. All compounds were tested in singlet.
# [3] = Table 3, HEK293/GLP1R/CRE-LUC cells, 30 min
# GLP-1 Receptor, sequence (P43220 24-463, species assumed): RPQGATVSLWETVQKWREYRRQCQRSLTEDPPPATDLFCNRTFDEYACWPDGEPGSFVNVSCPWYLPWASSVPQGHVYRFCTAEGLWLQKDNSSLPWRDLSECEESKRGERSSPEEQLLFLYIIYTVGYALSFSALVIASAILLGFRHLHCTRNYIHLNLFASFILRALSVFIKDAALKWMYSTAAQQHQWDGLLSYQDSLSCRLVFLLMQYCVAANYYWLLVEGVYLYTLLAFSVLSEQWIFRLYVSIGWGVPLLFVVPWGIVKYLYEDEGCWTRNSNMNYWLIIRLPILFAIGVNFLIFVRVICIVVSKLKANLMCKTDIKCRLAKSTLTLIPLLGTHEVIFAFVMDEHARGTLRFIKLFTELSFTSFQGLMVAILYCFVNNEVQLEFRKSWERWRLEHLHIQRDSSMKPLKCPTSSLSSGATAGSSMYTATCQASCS
"Papp at 2 h, 10 μM [1] [×10⁻⁶ cm/s]","efflux ratio at 2 h, 10 μM [1]",EC50 (GLP-1 Receptor; [3]) [pM],EC50 (GLP-1 Receptor; Table 4) [pM],Structure (SMILES),further results
0.19,45,1,11,"Cc1cc(-n2nc3c(c2-n2ccn(-c4ccc(S(=N)(=O)C5CCC5)cc4F)c2=O)[C@H](C)N(C(=O)c2cc4cc([C@H]5CCOC(C)(C)C5)ccc4n2[C@@]2(c4noc(=O)[nH]4)C[C@@H]2C)CC3)cc(C)c1F (single isomer, unassigned) [Compound 183]",
0.3,36.8,72,72,"CCS(=O)(=NC)c1ccc(-n2ccn(-c3c4c(nn3-c3cc(C)c(F)c(C)c3)CCN(C(=O)c3cc5cc(C6CCOCC6)ccc5n3[C@@]3(c5noc(=O)[nH]5)C[C@@H]3C)[C@H]4C)c2=O)c(Cl)c1 (single isomer, unassigned) [Compound 151]",
0.24,38,18,14,"Cc1cc(-n2nc3c(c2-n2ccn(-c4ccc(S(=N)(=O)C5CC5)cc4F)c2=O)[C@H](C)N(C(=O)c2cc4cc([C@H]5CCOC(C)(C)C5)ccc4n2[C@@]2(c4noc(=O)[nH]4)C[C@@H]2C)CC3)cc(C)c1F (single isomer, unassigned) [Compound 181]","AUC (ng · h/mL)_free form/dose ([2]; PO, 5 mpk, free form): 6,097/5 mpk ng · h/mL; half-life ([2]; male, Sprague Dawley, plasma, 1 mg/kg, elimination half life (IV), Method A): 1.66 h; bioavailability ([2]; male, Sprague Dawley, plasma, PO vs IV, Method A, read-out: Bioavailablility (% F)): 30%"
0.18,16.7,,140,"Cc1cc(-n2nc3c(c2-n2ccn(-c4ccc(N5CCCS5(=O)=O)cc4)c2=O)[C@H](C)N(C(=O)c2cc4cc(C5CCOCC5)ccc4n2[C@@]2(c4noc(=O)[nH]4)C[C@@H]2C)CC3)cc(C)c1F [Compound C-4, reference compound]",solubility at 4 h (FaSSIF solubility): 5.38 µM
0.1,90.8,19,15,"CN=S(C)(=O)c1ccc(-n2ccn(-c3c4c(nn3-c3cc(C)c(F)c(C)c3)CCN(C(=O)c3cc5cc(C6CCOCC6)ccc5n3[C@@]3(c5noc(=O)[nH]5)C[C@@H]3C)[C@H]4C)c2=O)cc1 (single isomer, unassigned) [Compound 121]",solubility at 4 h (FaSSIF solubility): 7.3 µM
0.32,15.7,65,68,"CCS(=O)(=NC)c1ccc(-n2ccn(-c3c4c(nn3-c3cc(C)c(F)c(C)c3)CCN(C(=O)c3cc5cc([C@H]6CCOC(C)(C)C6)ccc5n3[C@@]3(c5noc(=O)[nH]5)C[C@@H]3C)[C@H]4C)c2=O)c(F)c1C (single isomer, unassigned) [Compound 216]",solubility at 4 h (FaSSIF solubility): 7.9 µM
0.09,20.7,83,59,"CN=S(=O)(c1ccc(-n2ccn(-c3c4c(nn3-c3cc(C)c(F)c(C)c3)CCN(C(=O)c3cc5cc([C@H]6CCOC(C)(C)C6)ccc5n3[C@@]3(c5noc(=O)[nH]5)C[C@@H]3C)[C@H]4C)c2=O)cc1NC)C1CC1 (single isomer, unassigned) [Compound 218]",
0.21,50,11,11,"Cc1cc(-n2nc3c(c2-n2ccn(-c4ccc(S(=N)(=O)C5CCC5)cc4F)c2=O)[C@H](C)N(C(=O)c2cc4cc(C5CCOCC5)ccc4n2[C@@]2(c4noc(=O)[nH]4)C[C@@H]2C)CC3)cc(C)c1F (single isomer, unassigned) [Compound 168]",
,,25,,"Cc1cc(-n2nc3c(c2-n2ccn(-c4ccc(OC5CCS(=N)(=O)CC5)cc4)c2=O)[C@H](C)N(C(=O)c2cc4cc(C5CCOCC5)ccc4n2[C@@]2(c4noc(=O)[nH]4)C[C@@H]2C)CC3)cc(C)c1F (stereo partly drawn) [Compound 226, 3-((1S,2S)-1-(2-((S)-2-(4-fluoro-3,5-dimethylphenyl)-3-(3-(4-((1-imino-1-oxidohexahydro-1λ^6-thiopyran-4-yl)oxy)phenyl)-2-oxo-2,3-dihydro-1H-imidazol-1-yl)-4-methyl-4,5,6,7-tetrahydro-2H-pyrazolo[4,3-c]pyridine-5-carbonyl)-5-(tetrahydro-2H-pyran-4-yl)-1H-indol-1-yl)-2-methylcyclopropyl)-1,2,4-oxadiazol-5(4H)-one]",
,,39,,"CN=S(=O)(c1ccc(-n2ccn(-c3c4c(nn3-c3cc(C)c(F)c(C)c3)CCN(C(=O)c3cc5cc([C@H]6CCOC(C)(C)C6)ccc5n3[C@@]3(c5noc(=O)[nH]5)C[C@@H]3C)[C@H]4C)c2=O)c(F)c1C)C1CC1 (single isomer, unassigned) [Compound 196]",
,,67,,"CC1=Cc2c(ccc(-n3ccn(-c4c5c(nn4-c4cc(C)c(F)c(C)c4)CCN(C(=O)c4cc6cc([C@H]7CCOC(C)(C)C7)ccc6n4[C@@]4(c6noc(=O)[nH]6)C[C@@H]4C)[C@H]5C)c3=O)c2F)S(=O)(C2CC2)=N1 (single isomer, unassigned) [Compound 210]",
,,26,,"Cc1cc(-n2nc3c(c2-n2ccn(-c4ccc(C5(S(C)(=N)=O)CC5)cc4)c2=O)[C@H](C)N(C(=O)c2cc4cc(C5CCOCC5)ccc4n2[C@@]2(c4noc(=O)[nH]4)C[C@@H]2C)CC3)cc(C)c1F (single isomer, unassigned) [Compound 177]",
,,72,,"CN=S(=O)(c1ccc(-n2ccn(-c3c4c(nn3-c3cc(C)c(F)c(C)c3)CCN(C(=O)c3cc5cc([C@H]6CCOC(C)(C)C6)ccc5n3[C@@]3(c5noc(=O)[nH]5)C[C@@H]3C)[C@H]4C)c2=O)c(Cl)c1)C1CC1 (single isomer, unassigned) [Compound 205]",
,,74,,"CN=S(=O)(c1ccc(-n2ccn(-c3c4c(nn3-c3cc(C)c(F)c(C)c3)CCN(C(=O)c3cc5cc([C@H]6CCOC(C)(C)C6)ccc5n3[C@@]3(c5noc(=O)[nH]5)C[C@@H]3C)[C@H]4C)c2=O)c(F)c1Cl)C1CC1 (single isomer, unassigned) [Compound 215]",
,,230,,"Cc1cc(-n2nc3c(c2-n2ccn(-c4ccc(S5(=O)=NCCC5)cc4)c2=O)[C@H](C)N(C(=O)c2cc4cc(C5CCOCC5)ccc4n2C2(c4nsc(=O)[nH]4)CC2)CC3)cc(C)c1F (single isomer, unassigned) [Compound 130]",
0.05,78.1,,,"CNS(=O)(=O)c1ccc(-n2ccn(-c3c4c(nn3-c3cc(C)c(F)c(C)c3)CCN(C(=O)c3cc5cc(C6CCOCC6)ccc5n3[C@@]3(c5noc(=O)[nH]5)C[C@@H]3C)[C@H]4C)c2=O)cc1 [Compound C-3, reference compound]",solubility at 4 h (FaSSIF solubility): 6.45 µM
,,9900,,"CCS(=O)(=NC)c1ccc(-n2ccn(-c3c4c(nn3-c3cc(C)c(F)c(C)c3)CCN(C(=O)c3cc5cc(C6CCOCC6)ccc5n3C[C@H]3CCO3)[C@H]4C)c2=O)cc1 (single isomer, unassigned) [Compound 165]",
,,84,,"CN=S(=O)(c1ccc(-n2ccn(-c3c4c(nn3-c3cc(C)c(F)c(C)c3)CCN(C(=O)c3cc5cc(C6CCOCC6)ccc5n3[C@@]3(c5noc(=O)[nH]5)C[C@@H]3C)[C@H]4C)c2=O)c(F)c1)C1CC1 (single isomer, unassigned) [Compound 222]",
,,140,,"Cc1cc(-n2nc3c(c2N2CCN(c4ccc(S(C)(=N)=O)cc4)C2=O)[C@H](C)N(C(=O)c2cc4cc(C5CCOCC5)ccc4n2[C@@]2(c4noc(=O)[nH]4)C[C@@H]2C)CC3)cc(C)c1F (stereo partly drawn) [Compound 103, 3-[(1S,2S)-1-(2-{[(4S)-3-(3-{4-[azanylidene(methyl)(oxo)-λ^6-sulfanyl]phenyl}-2-oxotetrahydro-1H-imidazol-1-yl)-2-(4-fluoro-3,5-dimethylphenyl)-4-methyl-4,5,6,7-tetrahydropyrazolo[4,3-c]pyridin-5-yl]carbonyl}-5-(3,4,5,6-tetrahydro-2H-pyran-4-yl)indol-1-yl)-2-methylcyclopropyl]-4H,5H-1,2,4-oxadiazol-5-one]",
